# Measurements taken from ChEMBL document CHEMBL4613303, “New Dihydrothiazole Benzensulfonamides: Looking for Selectivity toward Carbonic Anhydrase Isoforms I, II, IX, and XII” (ACS Med Chem Lett, 2020).
# Target: Carbonic anhydrase 9 (Homo sapiens, UniProt Q16790)
# Assay: Inhibition of recombinant human carbonic anhydrase 9 incubated for 6 hrs prior to testing measured for 10 to 100 secs by phenol red-based stopped-flow CO2 hydration assay
row,Ki,SMILES
1,3.39 µM,CCn1c(-c2ccc(Br)cc2)cs/c1=N/c1ccc(S(N)(=O)=O)cc1
2,4.33 µM,CCn1c(-c2ccc(C#N)cc2)cs/c1=N/c1ccc(S(N)(=O)=O)cc1
3,0.214 µM,CCn1c(-c2cccc([N+](=O)[O-])c2)cs/c1=N/c1ccc(S(N)(=O)=O)cc1
4,4.32 µM,CCn1c(-c2ccc([N+](=O)[O-])cc2)cs/c1=N/c1ccc(S(N)(=O)=O)cc1
5,0.358 µM,CCn1c(-c2ccc(C)cc2)cs/c1=N/c1ccc(S(N)(=O)=O)cc1
6,0.248 µM,CCn1c(-c2ccccc2)cs/c1=N/c1ccc(S(N)(=O)=O)cc1
7,0.109 µM,CCn1c(-c2ccc(Cl)cc2)cs/c1=N/c1ccc(S(N)(=O)=O)cc1
8,0.297 µM,CCn1c(-c2cccs2)cs/c1=N/c1ccc(S(N)(=O)=O)cc1
9,0.144 µM,CCn1c(-c2ccc(F)cc2F)cs/c1=N/c1ccc(S(N)(=O)=O)cc1
10,4.31 µM,CCn1c(-c2ccc(-c3ccccc3)cc2)cs/c1=N/c1ccc(S(N)(=O)=O)cc1
11,3.93 µM,CCn1c(-c2ccc(F)cc2)cs/c1=N/c1ccc(S(N)(=O)=O)cc1
12,0.205 µM,CCn1c(-c2ccc(OC)cc2)cs/c1=N/c1ccc(S(N)(=O)=O)cc1
13,0.225 µM,CCn1c(-c2ccc(Cl)cc2Cl)cs/c1=N/c1ccc(S(N)(=O)=O)cc1
